Columns and labels:
[1] = target: Myosin-IIIb (Homo sapiens) (UniProt Q8WXR4); conditions: Compound concentration 1000.0 nM
[2] = target: Serine/threonine-protein kinase 38 (Homo sapiens) (UniProt Q15208); conditions: Compound concentration 1000.0 nM
[3] = target: Fibroblast growth factor receptor 3 (Homo sapiens) (UniProt P22607); conditions: Compound concentration 1000.0 nM
[4] = target: Testis-specific serine/threonine-protein kinase 3 (Homo sapiens) (UniProt Q96PN8); conditions: Compound concentration 1000.0 nM
[5] = target: Mitogen-activated protein kinase kinase kinase 5 (Homo sapiens) (UniProt Q99683); conditions: Compound concentration 1000.0 nM
[6] = target: Ephrin type-A receptor 8 (Homo sapiens) (UniProt P29322); conditions: Compound concentration 1000.0 nM
Chain of Ephrin type-A receptor 8 (Homo sapiens) (P29322 whole entry): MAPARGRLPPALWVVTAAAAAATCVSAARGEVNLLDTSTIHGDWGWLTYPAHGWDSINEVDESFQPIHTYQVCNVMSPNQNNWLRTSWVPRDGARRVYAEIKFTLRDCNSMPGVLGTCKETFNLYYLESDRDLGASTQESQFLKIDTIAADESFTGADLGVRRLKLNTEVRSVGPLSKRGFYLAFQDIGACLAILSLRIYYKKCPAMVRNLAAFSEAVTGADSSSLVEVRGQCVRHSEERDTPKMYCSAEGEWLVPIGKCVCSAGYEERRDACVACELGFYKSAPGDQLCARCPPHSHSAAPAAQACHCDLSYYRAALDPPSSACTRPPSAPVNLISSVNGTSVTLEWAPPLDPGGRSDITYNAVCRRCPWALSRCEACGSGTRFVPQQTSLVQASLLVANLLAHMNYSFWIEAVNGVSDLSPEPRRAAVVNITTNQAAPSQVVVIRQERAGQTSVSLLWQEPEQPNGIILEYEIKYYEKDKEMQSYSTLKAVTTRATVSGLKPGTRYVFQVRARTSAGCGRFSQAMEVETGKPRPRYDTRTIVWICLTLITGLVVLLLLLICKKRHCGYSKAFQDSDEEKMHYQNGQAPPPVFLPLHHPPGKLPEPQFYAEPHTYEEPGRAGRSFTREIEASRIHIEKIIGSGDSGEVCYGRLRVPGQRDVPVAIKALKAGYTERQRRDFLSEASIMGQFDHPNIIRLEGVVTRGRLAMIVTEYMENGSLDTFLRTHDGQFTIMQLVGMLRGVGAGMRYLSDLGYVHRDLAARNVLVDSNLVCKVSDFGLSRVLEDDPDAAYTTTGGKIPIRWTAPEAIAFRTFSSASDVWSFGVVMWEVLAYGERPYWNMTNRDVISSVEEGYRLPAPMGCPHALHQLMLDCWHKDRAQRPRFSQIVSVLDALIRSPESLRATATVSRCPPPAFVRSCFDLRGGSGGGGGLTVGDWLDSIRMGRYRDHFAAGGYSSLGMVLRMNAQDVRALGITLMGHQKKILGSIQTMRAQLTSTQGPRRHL

[7] = target: Serine/threonine-protein kinase PRP4 homolog (Homo sapiens) (UniProt Q13523); conditions: Compound concentration 1000.0 nM
[8] = target: MAP/microtubule affinity-regulating kinase 4 (Homo sapiens) (UniProt Q96L34); conditions: Compound concentration 1000.0 nM
[9] = target: cAMP-dependent protein kinase catalytic subunit PRKX (Homo sapiens) (UniProt P51817); conditions: Compound concentration 1000.0 nM
[10] = target: Phosphatidylinositol 4,5-bisphosphate 3-kinase catalytic subunit beta isoform (Homo sapiens) (UniProt P42338); conditions: Compound concentration 1000.0 nM
[11] = target: Histamine H2 receptor (Homo sapiens) (UniProt P25021); conditions: Compound concentration 10.0 uM
[12] = target: T1, 5-hydroxytryptamine receptor 3A (Homo sapiens) (UniProt P46098); conditions: Compound concentration 10.0 uM
T1 sequence (whole entry): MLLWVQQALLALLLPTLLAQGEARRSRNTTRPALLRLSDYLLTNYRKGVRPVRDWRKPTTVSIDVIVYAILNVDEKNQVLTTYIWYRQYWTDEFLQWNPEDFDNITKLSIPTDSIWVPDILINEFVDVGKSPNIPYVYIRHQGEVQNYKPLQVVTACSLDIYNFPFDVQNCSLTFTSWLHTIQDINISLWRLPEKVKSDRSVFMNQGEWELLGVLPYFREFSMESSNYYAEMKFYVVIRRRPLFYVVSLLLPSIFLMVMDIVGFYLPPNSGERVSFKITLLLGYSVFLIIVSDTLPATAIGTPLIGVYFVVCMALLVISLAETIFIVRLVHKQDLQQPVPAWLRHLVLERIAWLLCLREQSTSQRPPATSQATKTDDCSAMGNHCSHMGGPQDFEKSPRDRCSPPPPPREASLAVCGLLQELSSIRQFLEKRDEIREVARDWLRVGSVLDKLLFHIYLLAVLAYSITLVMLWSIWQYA

[13] = target: Dual specificity testis-specific protein kinase 1 (Homo sapiens) (UniProt Q15569); conditions: Compound concentration 1000.0 nM
[14] = target: SRSF protein kinase 2 (Homo sapiens) (UniProt P78362); conditions: Compound concentration 1000.0 nM
[15] = target: Myosin light chain kinase family member 4 (Homo sapiens) (UniProt Q86YV6); conditions: Compound concentration 1000.0 nM
Chain of Myosin light chain kinase family member 4 (Homo sapiens) (Q86YV6 whole entry): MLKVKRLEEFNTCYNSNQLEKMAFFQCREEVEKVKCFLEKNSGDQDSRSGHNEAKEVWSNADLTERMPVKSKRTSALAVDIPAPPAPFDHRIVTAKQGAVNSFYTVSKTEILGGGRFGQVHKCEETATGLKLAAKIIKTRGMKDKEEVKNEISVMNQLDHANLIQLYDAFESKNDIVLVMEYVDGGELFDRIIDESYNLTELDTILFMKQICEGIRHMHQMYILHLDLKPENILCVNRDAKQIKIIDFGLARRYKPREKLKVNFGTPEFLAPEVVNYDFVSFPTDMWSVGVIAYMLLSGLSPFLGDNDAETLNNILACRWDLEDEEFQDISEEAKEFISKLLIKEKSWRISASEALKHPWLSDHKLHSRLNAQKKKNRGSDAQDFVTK

[16] = target: Serine/threonine-protein kinase TAO3 (Homo sapiens) (UniProt Q9H2K8); conditions: Compound concentration 1000.0 nM
[17] = target: Macrophage-stimulating protein receptor (Homo sapiens) (UniProt Q04912); conditions: Compound concentration 1000.0 nM
Chain of Macrophage-stimulating protein receptor (Homo sapiens) (Q04912 25-304 limits assumed): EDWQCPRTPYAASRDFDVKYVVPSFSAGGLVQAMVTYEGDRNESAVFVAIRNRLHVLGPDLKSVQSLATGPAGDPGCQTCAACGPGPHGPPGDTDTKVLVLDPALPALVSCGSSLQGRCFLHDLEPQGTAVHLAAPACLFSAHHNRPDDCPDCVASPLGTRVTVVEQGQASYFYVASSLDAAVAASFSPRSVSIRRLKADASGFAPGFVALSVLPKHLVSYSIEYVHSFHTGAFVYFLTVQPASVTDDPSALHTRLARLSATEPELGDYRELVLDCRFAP
Chain of Macrophage-stimulating protein receptor (Homo sapiens) (Q04912 310-1400 limits assumed): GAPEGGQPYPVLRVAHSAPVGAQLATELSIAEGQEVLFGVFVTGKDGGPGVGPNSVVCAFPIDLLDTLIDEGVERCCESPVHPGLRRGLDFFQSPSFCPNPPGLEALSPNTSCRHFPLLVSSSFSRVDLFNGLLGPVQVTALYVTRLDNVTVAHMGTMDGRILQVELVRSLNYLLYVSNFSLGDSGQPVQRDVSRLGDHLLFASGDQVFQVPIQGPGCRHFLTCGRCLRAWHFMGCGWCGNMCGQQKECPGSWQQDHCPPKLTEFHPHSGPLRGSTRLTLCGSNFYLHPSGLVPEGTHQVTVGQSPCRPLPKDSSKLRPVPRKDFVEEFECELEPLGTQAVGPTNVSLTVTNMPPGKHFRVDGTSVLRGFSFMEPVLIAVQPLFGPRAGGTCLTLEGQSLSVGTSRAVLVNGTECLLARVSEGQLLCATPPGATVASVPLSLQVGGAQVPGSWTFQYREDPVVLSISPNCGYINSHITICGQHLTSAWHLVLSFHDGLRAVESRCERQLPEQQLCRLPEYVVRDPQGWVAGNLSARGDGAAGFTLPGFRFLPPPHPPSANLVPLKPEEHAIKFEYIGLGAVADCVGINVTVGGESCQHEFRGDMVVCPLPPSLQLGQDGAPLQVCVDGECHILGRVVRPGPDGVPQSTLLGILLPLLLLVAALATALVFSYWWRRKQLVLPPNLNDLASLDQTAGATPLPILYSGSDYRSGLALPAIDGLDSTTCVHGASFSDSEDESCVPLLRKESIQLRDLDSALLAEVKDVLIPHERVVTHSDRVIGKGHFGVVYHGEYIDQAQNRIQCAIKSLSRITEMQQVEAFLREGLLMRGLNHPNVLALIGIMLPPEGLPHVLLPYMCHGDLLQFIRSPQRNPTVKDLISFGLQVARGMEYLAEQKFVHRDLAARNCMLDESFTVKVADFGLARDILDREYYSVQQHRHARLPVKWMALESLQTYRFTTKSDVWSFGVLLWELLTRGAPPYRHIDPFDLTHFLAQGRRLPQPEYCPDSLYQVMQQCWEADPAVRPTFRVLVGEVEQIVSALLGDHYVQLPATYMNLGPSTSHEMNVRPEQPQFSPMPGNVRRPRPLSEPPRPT

[18] = target: Casein kinase I isoform gamma-1 (Homo sapiens) (UniProt Q9HCP0); conditions: Compound concentration 1000.0 nM
[19] = target: Muscle, skeletal receptor tyrosine-protein kinase (Homo sapiens) (UniProt O15146); conditions: Compound concentration 1000.0 nM
[20] = target: Activin receptor type-1 (Homo sapiens) (UniProt Q04771); conditions: Compound concentration 1000.0 nM
[21] = target: Protein kinase C iota type (Homo sapiens) (UniProt P41743); conditions: Compound concentration 1000.0 nM
[22] = target: Receptor tyrosine-protein kinase erbB-3 (Homo sapiens) (UniProt P21860); conditions: Compound concentration 1000.0 nM
[23] = target: Serine/threonine-protein kinase MARK2 (Homo sapiens) (UniProt Q7KZI7); conditions: Compound concentration 1000.0 nM
[24] = target: Testis-specific serine/threonine-protein kinase 1 (Homo sapiens) (UniProt Q9BXA7); conditions: Compound concentration 1000.0 nM
Chain of Testis-specific serine/threonine-protein kinase 1 (Homo sapiens) (Q9BXA7 whole entry): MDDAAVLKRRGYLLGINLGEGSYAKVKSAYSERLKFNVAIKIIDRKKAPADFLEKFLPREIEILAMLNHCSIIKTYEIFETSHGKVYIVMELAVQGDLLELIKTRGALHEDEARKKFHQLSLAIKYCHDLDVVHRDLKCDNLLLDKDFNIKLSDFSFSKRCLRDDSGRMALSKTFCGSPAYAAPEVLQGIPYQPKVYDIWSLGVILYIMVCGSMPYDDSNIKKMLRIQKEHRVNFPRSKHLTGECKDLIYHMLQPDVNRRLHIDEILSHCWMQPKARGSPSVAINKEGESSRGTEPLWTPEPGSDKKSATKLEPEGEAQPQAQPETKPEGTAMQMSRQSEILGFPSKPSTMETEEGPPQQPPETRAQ

[25] = target: RAF proto-oncogene serine/threonine-protein kinase (Homo sapiens) (UniProt P04049); conditions: Compound concentration 1000.0 nM
[26] = target: Serine/threonine-protein kinase mTOR (Homo sapiens) (UniProt P42345); conditions: Compound concentration 1000.0 nM
[27] = target: Protein kinase C epsilon type (Homo sapiens) (UniProt Q02156); conditions: Compound concentration 1000.0 nM
[28] = target: Ephrin type-B receptor 1 (Homo sapiens) (UniProt P54762); conditions: Compound concentration 1000.0 nM
[29] = target: Tyrosine-protein kinase HCK (Homo sapiens) (UniProt P08631); conditions: Compound concentration 1000.0 nM
[30] = target: Beta-adrenergic receptor kinase 1 (Homo sapiens) (UniProt P25098); conditions: Compound concentration 1000.0 nM
Chain of Beta-adrenergic receptor kinase 1 (Homo sapiens) (P25098 whole entry): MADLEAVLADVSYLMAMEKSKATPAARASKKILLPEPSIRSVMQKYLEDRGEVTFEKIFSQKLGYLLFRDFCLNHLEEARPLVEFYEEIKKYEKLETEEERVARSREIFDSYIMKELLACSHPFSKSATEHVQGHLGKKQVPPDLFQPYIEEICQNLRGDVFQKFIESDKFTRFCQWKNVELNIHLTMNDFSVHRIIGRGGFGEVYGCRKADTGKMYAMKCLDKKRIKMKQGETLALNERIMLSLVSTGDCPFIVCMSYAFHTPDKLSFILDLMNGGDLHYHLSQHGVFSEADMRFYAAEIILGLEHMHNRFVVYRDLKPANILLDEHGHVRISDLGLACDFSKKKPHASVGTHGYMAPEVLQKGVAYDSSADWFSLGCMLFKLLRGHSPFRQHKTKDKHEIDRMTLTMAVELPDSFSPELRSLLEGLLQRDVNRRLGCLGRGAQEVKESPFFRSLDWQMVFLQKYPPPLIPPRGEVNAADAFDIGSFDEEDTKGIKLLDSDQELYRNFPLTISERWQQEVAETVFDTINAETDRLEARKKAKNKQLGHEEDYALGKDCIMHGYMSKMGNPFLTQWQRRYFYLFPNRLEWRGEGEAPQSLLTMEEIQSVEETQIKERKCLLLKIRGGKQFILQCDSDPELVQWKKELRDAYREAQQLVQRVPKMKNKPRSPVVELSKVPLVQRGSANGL

[31] = target: Dual specificity protein kinase CLK2 (Homo sapiens) (UniProt P49760); conditions: Compound concentration 1000.0 nM
Chain of Dual specificity protein kinase CLK2 (Homo sapiens) (P49760 whole entry, looked up): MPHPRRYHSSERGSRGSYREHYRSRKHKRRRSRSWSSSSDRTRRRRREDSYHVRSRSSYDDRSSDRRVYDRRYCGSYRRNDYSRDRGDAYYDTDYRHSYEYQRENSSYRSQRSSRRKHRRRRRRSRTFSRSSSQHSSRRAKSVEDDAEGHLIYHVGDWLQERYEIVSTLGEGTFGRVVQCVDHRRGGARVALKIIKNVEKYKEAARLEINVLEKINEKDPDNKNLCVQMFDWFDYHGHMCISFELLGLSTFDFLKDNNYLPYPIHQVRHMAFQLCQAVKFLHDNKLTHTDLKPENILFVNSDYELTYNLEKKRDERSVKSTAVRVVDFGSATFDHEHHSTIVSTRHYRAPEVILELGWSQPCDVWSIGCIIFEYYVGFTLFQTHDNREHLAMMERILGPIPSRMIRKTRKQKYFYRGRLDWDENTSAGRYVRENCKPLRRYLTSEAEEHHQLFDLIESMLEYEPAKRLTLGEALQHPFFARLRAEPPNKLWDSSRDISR

[32] = target: Serine/threonine-protein kinase ULK1 (Homo sapiens) (UniProt O75385); conditions: Compound concentration 1000.0 nM
[33] = target: Peripheral plasma membrane protein CASK (Homo sapiens) (UniProt O14936); conditions: Compound concentration 1000.0 nM
[34] = target: Tyrosine-protein kinase Yes (Homo sapiens) (UniProt P07947); conditions: Compound concentration 1000.0 nM
[35] = target: Serine/threonine-protein kinase Nek9 (Homo sapiens) (UniProt Q8TD19); conditions: Compound concentration 1000.0 nM
[36] = target: Tyrosine-protein kinase Lyn (Homo sapiens) (UniProt P07948); conditions: Compound concentration 1000.0 nM
[37] = system: Mast/stem cell growth factor receptor Kit (Homo sapiens), P10721 [V559D]; conditions: Compound concentration 1000.0 nM
[38] = target: Receptor-interacting serine/threonine-protein kinase 1 (Homo sapiens) (UniProt Q13546); conditions: Compound concentration 1000.0 nM
[39] = target: Rho-associated protein kinase 2 (Homo sapiens) (UniProt O75116); conditions: Compound concentration 1000.0 nM

Chain of Serine/threonine-protein kinase 38 (Homo sapiens) (Q15208 2-465 limits assumed): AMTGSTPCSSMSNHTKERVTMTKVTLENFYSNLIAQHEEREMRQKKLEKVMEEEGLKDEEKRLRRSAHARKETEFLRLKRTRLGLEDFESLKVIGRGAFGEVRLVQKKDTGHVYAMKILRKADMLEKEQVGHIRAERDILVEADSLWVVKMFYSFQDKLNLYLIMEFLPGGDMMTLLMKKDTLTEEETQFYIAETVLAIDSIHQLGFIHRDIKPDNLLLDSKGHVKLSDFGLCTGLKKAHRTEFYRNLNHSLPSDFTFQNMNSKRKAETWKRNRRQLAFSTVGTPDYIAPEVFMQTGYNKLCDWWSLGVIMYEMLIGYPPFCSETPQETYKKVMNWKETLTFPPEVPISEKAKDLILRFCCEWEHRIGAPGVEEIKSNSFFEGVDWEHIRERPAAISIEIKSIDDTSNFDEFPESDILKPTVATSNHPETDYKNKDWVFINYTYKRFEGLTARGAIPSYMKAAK

## CS(=O)(=O)NCC[C@H](NC(=O)c1cncc2c1cnn2-c1ccc(F)cc1)c1ccnc(S(C)(=O)=O)c1 [BI 9307]
[1]
  residual activity: 100%
[2]
  residual activity: 100%
[3]
  residual activity: 100%
[4]
  residual activity: 100%
[5]
  residual activity: 96%
[6]
  residual activity: 100%
[7]
  residual activity: 69%
[8]
  residual activity: 78%
[9]
  residual activity: 100%
[10]
  residual activity: 93%
[11]
  inhibition: 2.46%
[12]
  inhibition: 10.2%
[13]
  residual activity: 100%
[14]
  residual activity: 100%
[15]
  residual activity: 100%
[16]
  residual activity: 80%
[17]
  residual activity: 99%
[18]
  residual activity: 91%
[19]
  residual activity: 100%
[20]
  residual activity: 100%
[21]
  residual activity: 100%
[22]
  residual activity: 100%
[23]
  residual activity: 75%
[24]
  residual activity: 99%
[25]
  residual activity: 76%
[26]
  residual activity: 88%
[27]
  residual activity: 100%
[28]
  residual activity: 88%
[29]
  residual activity: 100%
[30]
  residual activity: 100%
[31]
  residual activity: 100%
[32]
  residual activity: 100%
[33]
  residual activity: 100%
[34]
  residual activity: 100%
[35]
  residual activity: 100%
[36]
  residual activity: 100%
[37]
  residual activity: 100%
[38]
  residual activity: 99%
[39]
  residual activity: 100%

## CS(=O)(=O)c1cc(C2(NC(=O)c3cncc4c3cnn4-c3ccc(F)cc3)CC2)ccn1 [BI 639667]
[1]
  residual activity: 100%
[2]
  residual activity: 100%
[3]
  residual activity: 100%
[4]
  residual activity: 100%
[5]
  residual activity: 97%
[6]
  residual activity: 99%
[7]
  residual activity: 100%
[8]
  residual activity: 100%
[9]
  residual activity: 85%
[10]
  residual activity: 100%
[11]
  inhibition: 3.34%
[12]
  inhibition: 12.9%
[13]
  residual activity: 62%
[14]
  residual activity: 100%
[15]
  residual activity: 85%
[16]
  residual activity: 97%
[17]
  residual activity: 83%
[18]
  residual activity: 100%
[19]
  residual activity: 68%
[20]
  residual activity: 100%
[21]
  residual activity: 100%
[22]
  residual activity: 100%
[23]
  residual activity: 100%
[24]
  residual activity: 63%
[25]
  residual activity: 100%
[26]
  residual activity: 100%
[27]
  residual activity: 100%
[28]
  residual activity: 91%
[29]
  residual activity: 100%
[30]
  residual activity: 48%
[31]
  residual activity: 100%
[32]
  residual activity: 100%
[33]
  residual activity: 100%
[34]
  residual activity: 100%
[35]
  residual activity: 100%
[36]
  residual activity: 100%
[37]
  residual activity: 100%
[38]
  residual activity: 100%
[39]
  residual activity: 75%
